Our source for the inhibition values is patent publication US9371320B2, “Heterocyclic compound” (TAKEDA PHARMACEUTICAL COMPANY LIMITED, priority 2012, dated 2016).

One test deals with T1, Tyk2 (Homo sapiens, UniProt P29597).
T1 construct: purchased Invitrogen
As to the kind of experiment: Tyk2 enzyme inhibition test (LANCE method). It is filed as biochemical. The following applies: for inhibition at 1 µM: test compound 1 μM, read-out: Inhibitory rate (%) Tyk2 1 μM. Put shortly:
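LANCE TR-FRET read-out (ex 340/em 665 nm, 100 μs delay) of ULight-JAK1 phosphorylation, with no-enzyme wells as 100% inhibition. Reaction run 1 h at room temperature in pH 7.5 HEPES buffer; enzyme 375 ng/mL, substrate 300 nM and ATP 30 μM are solution concentrations before mixing.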
(In general: Time-resolved FRET reads energy transfer from a long-lived donor to a nearby acceptor.)

A further test deals with T2, JAK1 (Homo sapiens, UniProt P23458).
T2 construct: purchased Invitrogen
The experiment in a line: JAK1 enzyme inhibition test (LANCE method). The following applies: for inhibition at 1 µM: test compound 1 μM, read-out: Inhibitory rate (%) JAK1 1 μM. It is filed as biochemical. The method, boiled down:
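Reactions ran 1 h at room temperature in HEPES pH 7.5/MgCl2 buffer, with ATP solution at 150 μM and JAK1 and ULight peptide solutions at 187.5 ng/mL and 300 nM. Reactions were stopped with EDTA, and phosphorylation was read by Eu antibody time-resolved fluorescence at 665 nm. Inhibition was scaled to a no-enzyme control as 100%.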

T2 sequence (P23458 whole entry): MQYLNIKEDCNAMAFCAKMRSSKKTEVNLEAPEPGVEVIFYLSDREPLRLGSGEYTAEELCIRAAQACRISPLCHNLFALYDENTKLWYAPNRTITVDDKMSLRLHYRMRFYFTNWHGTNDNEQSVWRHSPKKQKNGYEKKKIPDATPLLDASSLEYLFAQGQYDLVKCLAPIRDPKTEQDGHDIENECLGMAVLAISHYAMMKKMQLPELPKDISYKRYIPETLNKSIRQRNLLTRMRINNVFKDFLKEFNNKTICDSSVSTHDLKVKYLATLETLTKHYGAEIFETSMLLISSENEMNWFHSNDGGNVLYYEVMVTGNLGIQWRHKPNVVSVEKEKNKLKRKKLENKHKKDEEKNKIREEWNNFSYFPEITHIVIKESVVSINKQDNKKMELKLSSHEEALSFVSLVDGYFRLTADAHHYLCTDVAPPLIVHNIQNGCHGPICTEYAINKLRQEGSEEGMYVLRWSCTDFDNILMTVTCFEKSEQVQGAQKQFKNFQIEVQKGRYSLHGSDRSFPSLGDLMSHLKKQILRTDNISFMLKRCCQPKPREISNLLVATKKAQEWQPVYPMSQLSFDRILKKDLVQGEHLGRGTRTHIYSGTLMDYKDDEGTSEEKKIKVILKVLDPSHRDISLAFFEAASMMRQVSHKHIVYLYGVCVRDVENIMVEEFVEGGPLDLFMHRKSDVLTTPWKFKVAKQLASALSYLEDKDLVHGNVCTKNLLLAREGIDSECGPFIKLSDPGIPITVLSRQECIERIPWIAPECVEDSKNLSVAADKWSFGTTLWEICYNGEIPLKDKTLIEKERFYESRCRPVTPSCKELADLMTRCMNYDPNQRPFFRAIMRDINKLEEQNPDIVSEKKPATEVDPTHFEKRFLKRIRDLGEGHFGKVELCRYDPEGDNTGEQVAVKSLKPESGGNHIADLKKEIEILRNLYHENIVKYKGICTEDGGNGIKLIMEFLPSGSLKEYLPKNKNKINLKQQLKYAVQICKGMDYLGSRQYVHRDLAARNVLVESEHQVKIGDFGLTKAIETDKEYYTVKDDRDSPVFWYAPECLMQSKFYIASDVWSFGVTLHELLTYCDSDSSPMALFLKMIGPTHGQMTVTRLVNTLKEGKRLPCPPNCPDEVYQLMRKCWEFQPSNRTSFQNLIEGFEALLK
T1 sequence (P29597 whole entry): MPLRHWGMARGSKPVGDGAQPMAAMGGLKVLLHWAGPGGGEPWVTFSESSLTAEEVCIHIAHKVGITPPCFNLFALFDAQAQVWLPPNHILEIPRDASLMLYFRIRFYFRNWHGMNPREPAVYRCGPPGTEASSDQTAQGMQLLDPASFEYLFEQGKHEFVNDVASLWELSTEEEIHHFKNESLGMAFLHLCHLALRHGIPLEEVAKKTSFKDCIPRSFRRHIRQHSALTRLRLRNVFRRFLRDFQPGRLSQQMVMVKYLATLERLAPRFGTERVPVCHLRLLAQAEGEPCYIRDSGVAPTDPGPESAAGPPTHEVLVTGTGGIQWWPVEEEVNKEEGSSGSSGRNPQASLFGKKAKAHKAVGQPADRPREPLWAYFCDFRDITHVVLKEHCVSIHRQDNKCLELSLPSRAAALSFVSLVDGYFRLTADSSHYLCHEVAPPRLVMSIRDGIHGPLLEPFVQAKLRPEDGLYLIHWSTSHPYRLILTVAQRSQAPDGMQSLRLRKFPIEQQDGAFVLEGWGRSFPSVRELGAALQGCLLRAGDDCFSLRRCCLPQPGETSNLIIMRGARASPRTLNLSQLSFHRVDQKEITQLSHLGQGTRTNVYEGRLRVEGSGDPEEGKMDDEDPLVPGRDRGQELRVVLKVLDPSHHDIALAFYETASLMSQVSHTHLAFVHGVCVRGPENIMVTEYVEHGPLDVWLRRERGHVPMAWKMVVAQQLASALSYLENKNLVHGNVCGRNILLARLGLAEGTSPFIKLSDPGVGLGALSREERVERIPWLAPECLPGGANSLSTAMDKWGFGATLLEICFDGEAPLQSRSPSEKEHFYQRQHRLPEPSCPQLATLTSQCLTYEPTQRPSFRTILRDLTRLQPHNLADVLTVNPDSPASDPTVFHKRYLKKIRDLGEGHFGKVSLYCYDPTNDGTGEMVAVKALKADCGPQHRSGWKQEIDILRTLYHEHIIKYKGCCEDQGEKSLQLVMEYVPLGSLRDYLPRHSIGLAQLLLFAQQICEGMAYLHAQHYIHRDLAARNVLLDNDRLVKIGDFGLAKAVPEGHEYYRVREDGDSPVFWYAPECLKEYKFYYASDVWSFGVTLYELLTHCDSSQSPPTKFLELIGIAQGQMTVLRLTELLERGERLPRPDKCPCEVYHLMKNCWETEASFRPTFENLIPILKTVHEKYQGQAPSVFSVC

Consider `COCCNC(=O)c1ccc(-c2nn(-c3c(F)cccc3F)c3c(Cl)c[nH]c(=O)c23)cc1` [Example 231, 4-(7-chloro-1-(2,6-difluorophenyl)-4-oxo-4,5-dihydro-1H-pyrazolo[4,3-c]pyridin-3-yl)-N-(2-methoxyethyl)benzamide], for which the inhibition at 1 µM came out at 99% at Tyk2 and 51% on JAK1.
As for `O=C(NCCO)c1ccc(-c2nn(-c3c(F)cccc3F)c3c(Cl)c[nH]c(=O)c23)cc1` [Example 232, 4-(7-chloro-1-(2,6-difluorophenyl)-4-oxo-4,5-dihydro-1H-pyrazolo[4,3-c]pyridin-3-yl)-N-(2-hydroxyethyl)benzamide], the inhibition at 1 µM at Tyk2 is 100%; at JAK1, 60%.
Taken in the same sequence, the figures for `O=c1[nH]ccc2c1c(-c1csc(N3CCOCC3)c1)nn2-c1c(F)cccc1F` [Example 234, 1-(2,6-difluorophenyl)-3-(5-(morpholin-4-yl)-3-thienyl)-1,5-dihydro-4H-pyrazolo[4,3-c]pyridin-4-one] were 99% and 99%.
For `Cc1c[nH]c(=O)c2c(-c3ccc(N4CCOCC4)cc3)nn(-c3c(F)cccc3F)c12` [Example 235, 1-(2,6-difluorophenyl)-7-methyl-3-(4-(morpholin-4-yl)phenyl)-1,5-dihydro-4H-pyrazolo[4,3-c]pyridin-4-one], the inhibition at 1 µM on Tyk2 was 99%; at JAK1, 92%.
Taken in the same sequence, the figures for `O=c1[nH]cc(Cl)c2c1c(-c1ccc(N3CCSCC3)cc1)nn2-c1c(F)cccc1F` [Example 236, 7-chloro-1-(2,6-difluorophenyl)-3-(4-(thiomorpholin-4-yl)phenyl)-1,5-dihydro-4H-pyrazolo[4,3-c]pyridin-4-one] were 99% and 65%.
Take `O=C(NCCO)c1ccc(-c2nn(-c3c(F)cccc3F)c3cc[nH]c(=O)c23)cc1` [Example 237, 4-(1-(2,6-difluorophenyl)-4-oxo-4,5-dihydro-1H-pyrazolo[4,3-c]pyridin-3-yl)-N-(2-hydroxyethyl)benzamide]: the inhibition at 1 µM at Tyk2 turned out to be 99%; on JAK1, 87%.
As to `Cn1cc(-c2nn(-c3c(F)cccc3F)c3cc[nH]c(=O)c23)ccc1=O` [Example 238, 1-(2,6-difluorophenyl)-3-(1-methyl-6-oxo-1,6-dihydropyridin-3-yl)-1,5-dihydro-4H-pyrazolo[4,3-c]pyridin-4-one], the inhibition at 1 µM came to 91% at Tyk2 and 72% on JAK1.
With `CN1CCN(c2ccc(-c3nn(-c4c(F)cccc4F)c4c(Cl)c[nH]c(=O)c34)cc2)C1=O` [Example 239, 7-chloro-1-(2,6-difluorophenyl)-3-(4-(3-methyl-2-oxoimidazolidin-1-yl)phenyl)-1,5-dihydro-4H-pyrazolo[4,3-c]pyridin-4-one], the values for the inhibition at 1 µM at Tyk2 and on JAK1 were 99% and 46%, respectively.
In the same order, the values of `CN1CCN(c2ccc(-c3nn(-c4c(F)cccc4F)c4cc[nH]c(=O)c34)cc2)C1=O` [Example 240, 1-(2,6-difluorophenyl)-3-(4-(3-methyl-2-oxoimidazolidin-1-yl)phenyl)-1,5-dihydro-4H-pyrazolo[4,3-c]pyridin-4-one] are 99% and 88%.
Turning to `COCCN(C)c1ccc(-c2nn(-c3c(F)cccc3F)c3c(Cl)c[nH]c(=O)c23)cc1` [Example 241, 7-chloro-1-(2,6-difluorophenyl)-3-(4-((2-methoxyethyl)(methyl)amino)phenyl)-1,5-dihydro-4H-pyrazolo[4,3-c]pyridin-4-one], the inhibition at 1 µM stood at 98% at Tyk2 and 53% on JAK1.
As for `O=c1[nH]cc(Cl)c2c1c(-c1ccc(N3CCS(=O)(=O)CC3)cc1)nn2-c1c(F)cccc1F` [Example 242, 7-chloro-1-(2,6-difluorophenyl)-3-(4-(1,1-dioxidothiomorpholin-4-yl)phenyl)-1,5-dihydro-4H-pyrazolo[4,3-c]pyridin-4-one], the inhibition at 1 µM at Tyk2 was 97%; on JAK1, 27%.
For `CC(C)(C)n1nc(-c2ccc(N3CCOCC3)cc2)c2c(=O)[nH]ccc21` [Example 243, 1-tert-butyl-3-(4-(morpholin-4-yl)phenyl)-1,5-dihydro-4H-pyrazolo[4,3-c]pyridin-4-one], the inhibition at 1 µM at Tyk2 stood at 76%; on JAK1 it was 52%.
Taken in the same sequence, the figures for `N#Cc1cc(F)c(-n2nc(-c3ccc(N4CCOCC4)cc3)c3c(=O)[nH]ccc32)c(F)c1` [Example 244, 3,5-difluoro-4-(3-(4-(morpholin-4-yl)phenyl)-4-oxo-4,5-dihydro-1H-pyrazolo[4,3-c]pyridin-1-yl)benzonitrile] were 97% and 89%.
Take `C[C@H]1COCCN1c1ccc(-c2nn(-c3c(F)cccc3F)c3cc[nH]c(=O)c23)cc1` [Example 245, 1-(2,6-difluorophenyl)-3-(4-((3S)-3-methylmorpholin-4-yl)phenyl)-1,5-dihydro-4H-pyrazolo[4,3-c]pyridin-4-one]: the inhibition at 1 µM at Tyk2 was 100%; at JAK1, 96%.
In the same order, the values of `C[C@@H]1COCCN1c1ccc(-c2nn(-c3c(F)cccc3F)c3cc[nH]c(=O)c23)cc1` [Example 246, 1-(2,6-difluorophenyl)-3-(4-((3R)-3-methylmorpholin-4-yl)phenyl)-1,5-dihydro-4H-pyrazolo[4,3-c]pyridin-4-one] are 99% and 94%.
For the molecule `NC(=O)c1cc(-c2nn(-c3ccccn3)c3cc[nH]c(=O)c23)cs1` [Example 247, 4-(4-oxo-1-(pyridin-2-yl)-4,5-dihydro-1H-pyrazolo[4,3-c]pyridin-3-yl)thiophene-2-carboxamide], the inhibition at 1 µM on Tyk2 turned out to be 88%; at JAK1, 86%.
Taken in the same sequence, the figures for `CC(C)(C)n1nc(Nc2cccc(S(N)(=O)=O)c2)c2c(=O)[nH]ccc21` [Example 248, 3-((1-tert-butyl-4-oxo-4,5-dihydro-1H-pyrazolo[4,3-c]pyridin-3-yl)amino)benzenesulfonamide] were 70% and 96%.
With `COc1ccc(CNc2nn(C(C)(C)C)c3cc[nH]c(=O)c23)cc1` [Example 249, 1-tert-butyl-3-((4-methoxybenzyl)amino)-1,5-dihydro-4H-pyrazolo[4,3-c]pyridin-4-one], the inhibition at 10 µM on Tyk2 (test compound 10 μM, read-out: Inhibitory rate (%) Tyk2 10 μM) was 25%; on JAK1 (test compound 10 μM, read-out: Inhibitory rate (%) JAK1 10 μM) it was 30%.
In the case of `CC(C)(C)n1nc(Nc2ccccc2)c2c(=O)[nH]ccc21` [Example 250, 3-anilino-1-tert-butyl-1,5-dihydro-4H-pyrazolo[4,3-c]pyridin-4-one], the inhibition at 1 µM at Tyk2 was found to be 69%; at JAK1 it was 93%.
Taken in the same sequence, the figures for `NC(=O)c1cc(F)c(-n2nc(-c3ccc(N4CCOCC4)cc3)c3c(=O)[nH]ccc32)c(F)c1` [Example 251, 3,5-difluoro-4-(3-(4-(morpholin-4-yl)phenyl)-4-oxo-4,5-dihydro-1H-pyrazolo[4,3-c]pyridin-1-yl)benzamide] were 99% and 96%.
With `NC(=O)Cc1cccc(-c2nn(-c3c(F)cccc3F)c3cc[nH]c(=O)c23)c1` [Example 252, 2-(3-(1-(2,6-difluorophenyl)-4-oxo-4,5-dihydro-1H-pyrazolo[4,3-c]pyridin-3-yl)phenyl)acetamide], the inhibition at 1 µM was determined as 98% on Tyk2 and 91% at JAK1.
For the molecule `CNC(=O)Cc1cccc(-c2nn(-c3c(F)cccc3F)c3cc[nH]c(=O)c23)c1` [Example 253, 2-(3-(1-(2,6-difluorophenyl)-4-oxo-4,5-dihydro-1H-pyrazolo[4,3-c]pyridin-3-yl)phenyl)-N-methylacetamide], the inhibition at 1 µM at Tyk2 worked out at 98%; at JAK1 it was 87%.
On to `NC(=O)c1cccc(-c2nn(-c3c(F)cccc3F)c3c(Cl)c[nH]c(=O)c23)c1` [Example 254, 3-(7-chloro-1-(2,6-difluorophenyl)-4-oxo-4,5-dihydro-1H-pyrazolo[4,3-c]pyridin-3-yl)benzamide], for which the inhibition at 1 µM turned out to be 98% at Tyk2 and 65% at JAK1.
In the same order, the values of `NC(=O)c1cccc(-c2nn(-c3c(F)cccc3F)c3cc[nH]c(=O)c23)c1` [Example 255, 3-(1-(2,6-difluorophenyl)-4-oxo-4,5-dihydro-1H-pyrazolo[4,3-c]pyridin-3-yl)benzamide] are 98% and 93%.
Take `O=c1[nH]ccc2c1c(-c1ccc(C3=CCOCC3)cc1)nn2-c1c(F)cccc1F` [Example 256, 1-(2,6-difluorophenyl)-3-(4-(3,6-dihydro-2H-pyran-4-yl)phenyl)-1,5-dihydro-4H-pyrazolo[4,3-c]pyridin-4-one]: the inhibition at 1 µM turned out to be 98% on Tyk2 and 92% at JAK1.
Taken in the same sequence, the figures for `O=c1[nH]ccc2c1c(-c1ccc(C3CCOCC3)cc1)nn2-c1c(F)cccc1F` [Example 257, 1-(2,6-difluorophenyl)-3-(4-(tetrahydro-2H-pyran-4-yl)phenyl)-1,5-dihydro-4H-pyrazolo[4,3-c]pyridin-4-one] were 98% and 96%.
On to `CN(C)Cc1cccc(-c2nn(-c3c(F)cccc3F)c3cc[nH]c(=O)c23)c1` [Example 258, 1-(2,6-difluorophenyl)-3-(3-((dimethylamino)methyl)phenyl)-1,5-dihydro-4H-pyrazolo[4,3-c]pyridin-4-one], for which the inhibition at 1 µM at Tyk2 worked out at 88%; on JAK1, 43%.
